Data reported in patent US20240158447A1, “PEPTIDES FOR USE IN THE TREATMENT OR PREVENTION OF MYOCARDIAL DAMAGE” (THE UNIVERSITY OF WESTERN AUSTRALIA, priority 2020, published 2024).
Entries after “also recorded” stand apart in the source; their conditions may differ.

Assays:
[1] = system: cTnI-G203S mutant myocytes; test: Flavoprotein oxidation response to BayK(−), cTnI-G203S myocytes (Example 10); assay type: cell-based, mouse; conditions: 0.5 μM peptide, 10 μM BayK(−), FIG. 10D
Protocol: In this experiment wt myocytes were pre-exposed to 0.1, 0.5 or 1 μM for 20 min and assessed changes in flavoprotein oxidation and ψm.
Measurement of mitochondrial flavoprotein oxidation: Flavoprotein autofluorescence was used to measure flavoprotein oxidation based on previously described methods (Yaniv Y, Juhaszova M, Lyashkov A E, Spurgeon H A, Sollott S J, Lakatta E G. Ca2+-regulated-cAMP/PKA signaling in cardiac pacemaker cells links ATP supply to demand. J Mol Cell Cardiol. 2011; 51(5):740-8). […] Fluorescent images were acquired at 1 min intervals with 200 ms exposure. Metamorph 6.3 (Version 7.10.3) was used to quantify the signal by manually tracing myocytes. […] Fluorescence values recorded over 5 min before and 5 min after addition of drugs were averaged and alterations in fluorescent ratios reported as the percentage increase from the basal average. FCCP (50 μM) and NaCN (40 mM) was added at the end of each experiment to achieve a respective maximal and minimal fluorescence value indicative of maximal and minimal flavoprotein oxidation.
The ICA-L agonist BayK(−) was used to activate the channel and assess mitochondrial function. […] FIG. 10 presents the mean+/−SEM of flavoprotein fluorescence from cTnI.2 wt and cTnI-G2035 mutant myocytes before and after exposure to 10 μM BayK(−) in the presence of 1 μM AID(S)-TAT, and increasing concentrations of variant peptides as indicated. […]

[2] = system: wild type cardiac myocytes; test: Intracellular superoxide (DHE) after H2O2 in cardiac myocytes; assay type: cell-based, mouse; conditions: 20 min incubation with 0.5-1 μM peptide; 30 μM H2O2 5 min; FIG. 3(b)
Protocol: Adult male C57BL/6J mice were anesthetized with pentobarbitone sodium (240 mg/kg) via intraperitoneal injection prior to excision of the heart. Ventricular myocytes were isolated. Mouse hearts were cannulated onto a Langendorff apparatus via the aorta and perfused retrogradely with Krebs-Henseleit Buffer (KHB) containing (in mM): 120 NaCl, 25 NaHCO3, 4.8 KCl, 2.2 MgSO4, 1.2 NaH2PO4 and 11 glucose (pH=7.35 with O2/CO2 at 37° C.) for 4 min at 37° C. Hearts were then perfused with KHB supplemented with 2.4 mg/ml collagenase B for 3 min, then 8 min perfusion in the presence of 40 μM calcium. Following perfusion, aorta and atria were removed, and ventricles gently teased apart and triturated to dissociate myocytes into suspension. […]
All in vitro studies were performed in freshly isolated myocytes at 37° C. […] Following a 20 min incubation with 0.5-1 μM AID(S)-TAT, AID-TAT, peptide 6 or peptide 7, fluorescent signal of individual myocytes was quantified using Metamorph 6.3 to measure signal intensity of manually traced cell regions. […]
Superoxide generation was assessed in cardiac myocytes using the fluorescent indicator dihydroethidium (DHE, 5 μM, 515-560 nm ex filter, 590 long pass em, Merck). […] Fluorescence was reported as percentage change in the slope of the signal measured at 20-40 min (treatment) over 1-10 min (pre-treatment).

[3] = system: cTnI-G203S mice; test: Echocardiography of pre-cardiomyopathic cTnI-G203S mice (Example 15); assay type: in vivo, mouse; conditions: 5 μM, 3×/wk/5 wk, FIG. 15
From the text: Twenty to thirty week-old male mice expressing the human cTnI gene encoding the human disease-causing cTnI-G203S were generated and used for the in vivo studies. By way of background, the mice develop hallmark features of HCM between 20 and 25 weeks (Viola H, Johnstone V, Cserne Szappanos H, Richman T, Tsoutsman T, Filipovska A, et al. The L-type Ca(2+) channel facilitates abnormal metabolic activity in the cTnI-G2035 mouse model of hypertrophic cardiomyopathy. J Physiol. 2016; 594(14):4051-70; Viola H M, Shah A A, Johnstone V P A, Cserne Szappanos H, Hodson M P, Hool L C. Characterization and validation of a preventative therapy for hypertrophic cardiomyopathy in a murine model of the disease. Proc Nati Aced Sci U S A. 2020; 117(37):23113-24; Tsoutsman T, Chung J, Doolan A, Nguyen L, Williams IA, Tu E, et al. Molecular insights from a novel cardiac troponin I mouse model of familial hypertrophic cardiomyopathy. J Mol Cell Cardiol. 2006; 41(4):623-32). Age-matched male mice expressing the normal human troponin I gene were used as controls and indicated as wild-type (wt). For in vivo studies, 20-week old cTnI-G203S mice were treated with 10 μM AID(S)-TAT (2 mg/kg) or 5 μM AID-TAT mutant peptides via intraperitoneal injection, 3 times per week for a total duration of 5 weeks. The peptide was dissolved in phosphate buffered saline solution (PBS), and the total amount of the 10 μM AID-TAT mutant peptides administered over 5 weeks was 0.9 mg. The total amount of the 5 μM AID-TAT mutant peptides administered over 5 weeks was 0.45 mg Male mice were utilized to eliminate potential differences in responses due to gender. The number of mice used is indicated by N.
Echocardiographic studies to measure left ventricular function were performed on mice under light methoxyflurane anaesthesia with the use of an i13L probe on a Vivid™ 7 IQ ultrasound system (GE Healthcare, Little Chalfont, UK) as previously described (Viola H, Johnstone V, Cserne Szappanos H, Richman T, Tsoutsman T, Filipovska A, et al. The L-type Ca(2+) channel facilitates abnormal metabolic activity in the cTnI-G2035 mouse model of hypertrophic cardiomyopathy. J Physiol. 2016; 594(14):4051-70; Viola H M, Shah A A, Johnstone V P A, Cserne Szappanos H, Hodson M P, Hool L C. Characterization and validation of a preventative therapy for hypertrophic cardiomyopathy in a murine model of the disease. Proc Natl Acad Sci U S A. 2020; 117(37):23113-24; Viola H M, Johnstone V P A, Cserne Szappanos H, Richman T R, Tsoutsman T, Filipovska A, et al. The Role of the L-Type Ca(2+) Channel in Altered Metabolic Activity in a Murine Model of Hypertrophic Cardiomyopathy. JACC Basic Transl Sci. 2016; 1(1-2):61-72). Each N represents the average of quantitative measurements from wt or cTnI-G203S mice for each treatment group.

“AIDP7-TAT: QQQEEDLKGYLDWITQAE with TAT sequence” was tested, and the “BayK(−) induced increase in flavoprotein oxidation” value [1] was “significantly attenuated increases in flavoprotein oxidation resulting from BayK(−) exposure”, the “H2O2 induced superoxide production (DHE)” value [2] was “reduced the generation of superoxide in a statistically significant manner” and the IVDS [3] was “trend toward increased LVEDd and LVEDs, and decreased IVDS”. The “EF, ejection fraction” value ([3]; versus AID(S)-TAT) was “effectively restored”, the “FS, fractional shortening” value ([3]; versus AID(S)-TAT) was “effectively restored” and the “IVSs, intraventricular septum in systole” value ([3]; versus AID(S)-TAT) was “significant decrease; also recorded: effectively restored”. The “LVEDd, left ventricular end diameter during diastole” value ([3]; versus AID(S)-TAT) was “trend toward increased LVEDd and LVEDs, and decreased IVDS”, the “LVEDs, left ventricular end diameter during systole” value ([3]; versus AID(S)-TAT) was “trend toward increased LVEDd and LVEDs, and decreased IVDS” and the “LVPWd, left ventricular posterior wall in diastole” value ([3]; versus AID(S)-TAT) was “effectively restored”. The “LVPWs, left ventricular posterior wall in systole” value ([3]; versus AID(S)-TAT) was “effectively restored; also recorded: significant decrease”.
